From patent publication US20220274980A1, “PHARMACOLOGICAL INHIBITORS OF THE ENL YEATS DOMAIN” (priority 2019, published 2022)
pIC50: −log10 of the molar value.

Tests used:
BRD4 bromodomain 1 (BD1) = target: T1, BRD4 bromodomain 1 (BD1) (Homo sapiens, UniProt O60885); assay: BRD4 (BD1)-H4 tetra-acetylated HTRF histone-binding assay
T1 construct: Selectivity against BRD4 bromodomain 1 (BD1), measured by HTRF; His; purchased Cayman 11720
Procedure, shortened: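 Recombinant BRD4 BD1 (10 nM) was combined with 13.3 nM biotinylated tetra-acetylated H4 peptide, Eu-anti-His antibody and APC-streptavidin in HEPES buffer, pH 7. Compound was pin-transferred and plates incubated ≥2 h before HTRF reading (665/620 nm ratio). Percent inhibition was normalised to vehicle (maximum) and no-peptide (minimum) wells.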

[1] = Half-life in human liver microsomes; assay type: in vitro ADME; conditions: read-out: t1/2 (min) human liver microsomes

- pIC50 (BRD4 bromodomain 1 (BD1); Table 1): < 4.30
- pIC50 (BRD4 bromodomain 1 (BD1); Table 2): < 4.30
- half-life [1]: 22.6 min
Structure (SMILES): O=C(NC1CCC1)c1ccc2nc(-c3cccc(NS(=O)(=O)NCCN4CCCCC4)c3)cn2c1 [Compound 93]
